What was measured:
[1] = background statement; cited from earlier work
[2] = Polymorphic changes of FA after exposure to water (slurry), followed by 13C CP/MAS NMR; type: physicochemical; settings: slurry 0.5 g FA in 10 ml water, stirred at room temperature for seven days, filtered and dried
Experimental: Slurries containing 0.5 g FA in 10 ml of water were covered and stirred at room temperature for seven days. To remove the water, the samples were filtered and dried overnight at room temperature.
Approximately 80-100 mg of sample was packed inside a 7 mm rotor. Magic-angle spinning (MAS) NMR spectra of fluocinolone acetonide (FA) were acquired using a Varian Unity Inova 400 operating at 399.8 and 100.5 MHz for ^1H and ^13C respectively. The spectra were acquired using cross-polarization (CP) with total sideband suppression and a spinning speed of 4 kHz. Additional acquisition and processing parameters are noted below:
All spectra were externally referenced to hexamethylbenzene (HMB) (^13C, aliphatic peak at 17.4 ppm).

For CC1(C)O[C@@H]2C[C@H]3[C@@H]4C[C@H](F)C5=CC(=O)C=C[C@]5(C)[C@@]4(F)[C@@H](O)C[C@]3(C)[C@]2(C(=O)CO)O1 [Fluocinolone acetonide], the solubility in water [1] is given as “practically insoluble” and the “polymorphic changes after exposure to water for an extended time period” value [2] is given as “all polymorphic forms interconvert to the same form”.
